Values quoted from earlier work in patent publication US20110189319A1, “Lifeforce liquid supplement” (priority 2010, published 2011).
Like-named read-outs stand apart in the source and are kept apart here.

Tests used:
[1] = tested on: patients affected by chronic cerebrovasculopathy; conditions: 1000 mg/day i.m.
[2] = tested on: patients with Alzheimer disease; conditions: 1,000 mg/day
AMD patients = conditions: 10 mg daily, 12 months
[3] = in vivo
lymphocytes = conditions: relative to beta-carotene
[4] = tested on: permanent middle cerebral artery occlusion in rats; conditions: rats, 2,3,5-triphenyltetrazolium-chloride staining
[5] = in vivo; remark: listed apart in the source
[6] = molecular target: phosphodiesterase (PDE) type-1
[7] = not given; remark: listed apart in the source
[8] = tested on: patients suffering from mild to moderate dementia; conditions: 10 or 20 mg three times a day, sixteen weeks
[9] = tested on: elderly patients with chronic cerebral dysfunction
[10] = tested on: healthy female volunteers; conditions: 40 mg three times a day, two days
[11] = tested on: patients suffering from multiple cerebral infarcts
[12] = oral, healthy male volunteers, PET
exercise capacity = conditions: 750 mg soybean-derived daily for 10 d
young adults = conditions: 300 mg each day for a month, neuroticism scores above the median
[13] = tested on: healthy elderly volunteers; conditions: 100 mg×3/day p.o., 12 weeks
[14] = tested on: elderly with age-associated memory impairment; conditions: in vivo
women = conditions: highest versus least dietary intake
[15] = tested on: female health professionals; conditions: about 262.4 versus 4.4 milligrams per day
[16] = 100 microM, ascorbate/Fe2+ oxidative stress
[17] = 2,038 subjects without hypertension
[18] = 2,238 subjects not using drugs, supplements or special diet
[19] = high (0.67% kcal) versus lower intake, all participants

Which bioavailability (in vivo) does the source give for `C[N+](C)(C)CCOP(=O)(O)OP(=O)([O-])OC[C@H]1O[C@@H](n2ccc(N)nc2=O)[C@H](O)[C@@H]1O` [Citicoline, cytidine 5′-diphosphocholine] here?
Its bioavailability is “greater than 90%”.

What about the excreted in feces (oral doses, healthy adults) of the same compound?
Its excreted in feces is “less than one”.

What about the “first plasma peak after ingestion” value (oral, biphasic) of the same compound?
Its value is “one”.

And the “second larger plasma peak post-dosing” value (oral, biphasic)?
The value was 24 h.

What about the side-effects [1] of the same compound?
The side-effects was “No side-effects were detected”.

And the tolerability [2]?
The tolerability was “well tolerated”.

For `CC1=C[C@H](O)CC(C)(C)[C@H]1/C=C/C(C)=C/C=C/C(C)=C/C=C/C=C(C)/C=C/C=C(C)/C=C/C1=C(C)C[C@@H](O)CC1(C)C` [Lutein], which “increase in macular pigment density relative to placebo” value (AMD patients) is on record?
Its value is 50%.

And the “visual function (glare recovery, contrast sensitivity, visual acuity) vs. placebo” value (AMD patients)?
The value was “significant improvements”.

And the bioavailability [3]?
The bioavailability was “approximately 70%”.

Which “protection of lymphocytes from membrane damage and cell death” value (lymphocytes) does the source give for `CC(C)=CCC/C(C)=C/C=C/C(C)=C/C=C/C(C)=C/C=C/C=C(C)/C=C/C=C(C)/C=C/C=C(\C)CCC=C(C)C` [Lycopene] here?
The value was “twice as efficiently as beta-carotene”.

Which “decrease of infarct volume compared to control” value [4] does the source give for `C[C@]12N[C@H](Cc3ccccc31)c1ccccc12` [MK-801] here?
Its value is 18%.

With `CC(C)=CCC[C@](C)(O[C@@H]1O[C@H](CO[C@@H]2O[C@H](CO)[C@@H](O)[C@H](O)[C@H]2O)[C@@H](O)[C@H](O)[C@H]1O)[C@H]1CC[C@]2(C)[C@@H]1[C@H](O)C[C@@H]1[C@@]3(C)CC[C@H](O[C@@H]4O[C@H](CO)[C@@H](O)[C@H](O)[C@H]4O[C@@H]4O[C@H](CO)[C@@H](O)[C@H](O)[C@H]4O)C(C)(C)[C@@H]3CC[C@]12C` [Rb1, Ginsenoside Rb1] as the compound, how does the oral bioavailability ([5]; po) read?
Its oral bioavailability is “low oral bioavailability”.

Which “elimination from the blood” value [5] does the source give for `CC(C)=CCC[C@](C)(O[C@@H]1O[C@H](CO)[C@@H](O)[C@H](O)[C@H]1O)[C@H]1CC[C@]2(C)[C@@H]1[C@H](O)C[C@@H]1[C@@]3(C)CC[C@H](O)C(C)(C)[C@@H]3[C@@H](O[C@@H]3O[C@H](CO)[C@@H](O)[C@H](O)[C@H]3O)C[C@]12C` [Rg1, ginsenoside Rg1] here?
The value was “rapidly eliminated from the blood”.

Which results are given for `CCOC(=O)C1=C[C@]2(CC)CCCN3CCc4c(n1c1ccccc41)[C@@H]32` [Vinpocetine]?
IC50 [6]: ~10 µM; decrease of infarct volume compared to control [4]: 42%; decrease of DCFH2-DA fluorescence (rat brain synaptosomes; [16]): about 50%; decrease of DHR 123 fluorescence (rat brain synaptosomes; [16]): ~83%; ascorbate/Fe2+ stimulated consumption of oxygen and TBARS accumulation (rat brain synaptosomes; concentration-dependent): inhibited; absorption of an ingested dose ([7]; given with food): up to 60%; elimination half-life following ingestion ([7]; in vivo): one to two; levels peak in the bloodstream after ingestion ([7]; in vivo): an hour and a half; time to peak plasma levels after ingestion ([7]; in vivo): one to one and a half; absorption of an ingested dose ([7]; on an empty stomach): ≥ 7%; time in which most of a dose is excreted as apovincaminic acid ([7]; urine): ≤ 24 h; cognitive improvement versus placebo [8]: Statistically significant cognitive improvements; side effects [8]: no clinically relevant side effects; cognitive evaluations versus placebo ([9]; 10 mg tid thirty days, then 5 mg tid sixty days): scored consistently better in all cognitive evaluations; side effects ([9]; ninety-day trial): No serious side effects; memory versus placebo [10]: significantly improved; side effects ([11]; in vivo): No serious side effect; digit span backward test ([11]; three months): did not show any significant worsening; flow velocities after breath holding, acute phase, versus placebo ([11]; transcranial Doppler): significantly lower

For `CCOC(=O)C1=C[C@]2(CC)CCCN3CCc4c(n1c1ccccc41)[C@@H]32` [[11C] vinpocetine], which “average maximum brain uptake” value [12] is on record?
Its value is 0.7 % of the administered total dose.

For `COc1ccc2c(=O)oc3c(OC)cc(CCN(C)C)c4c(=O)oc1c2c34` [taspine], which “activity against herpes virus” value (herpes virus) is on record?
The value was “active”.

Which results are given for Phosphatidylserine?
exercise capacity (exercise capacity): improved exercise capacity; feelings of stress and mood (young adults): feeling less stressed and having a better mood; outcome measures of age related cognitive decline [13]: significant drug over time effect; safe dosage for older persons [14]: ≤ 200 mg three times daily

What does the source list for omega-3 fatty acid?
average diastolic reduction (INTERMAP participants; [17]): 0.92 mm Hg; average systolic reduction (INTERMAP participants; [17]): 0.91 mm Hg; reduction in diastolic blood pressure (INTERMAP participants; [18]): 0.98 mm Hg; reduction in systolic blood pressure (INTERMAP participants; [18]): 1.01 mm Hg; lower average diastolic blood pressure (INTERMAP participants; [19]): 0.57 mm Hg; lower average systolic blood pressure (INTERMAP participants; [19]): 0.55 mm Hg; lower risk of dry eye syndrome (women): 17%

With vitamin E as the compound, how does the “less likely to develop cataracts” value [15] read?
Its value is 14%.
